Data published in patent publication US12478592B2, “Dosage regime with esketamine for treating neuropsychiatric or neurological conditions” (priority 2019, dated 2025).

Assays:
[1] = Single dose crossover study in healthy volunteers, pharmacokinetics
Description: A randomized, open-label 4-way crossover study in 16 healthy male and female subjects was held wherein said subjects were placed in a randomly assigned order and administered esketamine. Each subject was assigned to 1 of 4 treatment sequences according to a randomization code such that 4 subjects were assigned to each treatment sequence. There was a wash-out period of at least 7 days between dosing periods with doses consisting of either oral or intravenous esketamine hydrochloride. The study consisted of an eligibility screening period of 28 days, 4 study periods involving administration of a single dose of esketamine hydrochloride followed by safety assessments with blood sampling for PK purposes up to 72 hours after study drug administration, discharge at 72 hours after study drug administration and a follow-up visit 7-14 days after the last PK blood sample was taken on Day 4.

[2] = tested on: human peripheral blood lymphocytes (HPBL)
Experimental: The clastogenic potential of (S)-norketamine was evaluated in the in vitro mammalian chromosome aberration test using human peripheral blood lymphocytes (HPBL) in both the absence and presence of an induced metabolic activation system (the 9000 g supernatant [S9] microsomal fraction of liver homogenate from rats exposed to phenobarbital/5,6-benzoflavone).
The study was conducted in 2 phases, with a preliminary toxicity test used to determine the appropriate concentrations for the definitive chromosomal aberration assay. Water was used as a negative (vehicle) control. In both phases, the cells were treated for 3 and 21 hours in the absence of S9 mix and for 3 hours in the presence of S9 mix. The mitotic index was assessed for all cultures to determine cytotoxicity. Ten concentrations, ranging from 2.62 to 260.16 μg/mL, were evaluated in the preliminary toxicity test. […] (S)-Norketamine concentrations of 93.66, 156.10 or 260.16 μg/mL were selected for metaphase analysis.

[3] = tested on: human peripheral blood lymphocytes (HPBL); remark: listed apart in the source
Experimental: The clastogenic potential of esketamine was evaluated in the in vitro mammalian chromosome aberration test using human peripheral blood lymphocytes (HPBL) in both the absence and presence of an induced metabolic activation system (the 9000 g supernatant [S9] microsomal fraction of liver homogenate from rats exposed to Aroclor-1254).
The study was conducted in 2 phases, with a preliminary toxicity test used to determine the appropriate concentrations for the definitive chromosomal aberration assay. Water was used as a negative (vehicle) control. Toxicity (defined as ≥45% reduction in MI relative to the vehicle control) was evaluated at 9 concentrations, ranging from 0.0238 to 238 μg/ml, after exposure of HPBL to esketamine for 20 hours in the absence of S9 activation, or for 4 hours, either in the presence or absence of S9 activation, followed by a 16-hour recovery period.
The definitive chromosome aberration assay evaluated HPBL cells after exposure to esketamine for 20 hours in the absence of S9 activation, or for 4 hours, either in the presence of absence of S9 activation, followed by a 16-hour recovery. Positive controls for chromosomal aberrations in non-activated and S9-activated evaluations, respectively, consisted of mitomycin C (MMC, 0.6 and 0.3 μg/mL for the 4- and 20-hour exposures, respectively) and cyclophosphamide (CP, 2.5, 5, and 7.5 μg/mL). […] Initially, the doses selected for evaluation of chromosomal aberrations were 60, 120, and 238 μg/mL for the non-activated 4- and 20-hour treatment conditions; and 30, 60, and 200 μg/mL for the S9-activated 4-hour treatment condition.

[4] = Repeated dose 28 day study, toxicokinetics; details: for Dose normalized AUC0-inf: Day 1
Experimental: The objective of the study was to assess the potential toxicity, neurobehavioral effects, and toxicokinetics (TK) of esketamine when administered orally, via gavage, to Sprague Dawley rats for 28 days and to evaluate recovery during a 14-day drug-free period. Fifty male and 50 female rats were randomized into 4 groups (15/sex/Groups 1 and 4; 10/sex/Groups 2 and 3). Esketamine was administered via oral gavage once daily for 28 consecutive days to males at 0 (vehicle control), 6, 10 or 30 mg/kg/day and females at 0 (vehicle control), 2, 10 or 20 mg/kg/day in a dose volume of 10 mL/kg. Animals were observed until euthanized and necropsied on Day 29 (10/sex/group) or 43 (5/sex from Groups 1 and 4). Toxicity was evaluated based on mortality, clinical observations, body weights, food consumption, ophthalmology, motor activity, functional observational battery, clinical pathology (clinical chemistry, hematology, coagulation and urinalysis), organ weights, anatomic (macroscopic or microscopic) pathology. Toxicokinetic animals (3/sex/Group 1; 6/sex/Groups 2, 3, and 4) were similarly dosed and bled on Day 1 and during Week 4 for toxicokinetic analysis.

Sprague Dawley rats [5] = experiment: Repeated dose 28 day study, toxicity; type: in vivo; details: 28 days oral gavage; males 6, 10, 30 and females 2, 10, 20 mg/kg/day
Sprague Dawley rats [6] = experiment: 104 week carcinogenicity study; type: in vivo; details: after 28 days at point of departure doses and at reduced doses after 730 days
Experimental: A 104 Week carcinogenicity study of esketamine administered via oral gavage to Sprague Dawley Rats is performed to evaluate the carcinogenic potential and determine the toxicokinetics of esketamine.
The study end-points include clinical observations, body weight changes, food consumption, bioanalytical toxicokinetic analysis, and anatomic macroscopic and microscopic pathology findings.

male Sprague Dawley rats = experiment: 7-day forced swim test; type: in vivo; details: 15 mg/kg i.p., single acute dose
Experimental: Groups of, 6-7 week old, male Sprague Dawley rats were administered esketamine by intraperitoneal injection and their behavioral despair assessed by a forced swim test. The animals, in cohorts of 10, were administered either a single dose of 15 mg/kg esketamine, 7 daily doses of either 7.5 or 15 mg/kg esketamine or a vehicle control, and the test performed 30 minutes after dosing. Statistical evaluation was performed using an ordinary One-Way ANOVA, t Test and an Uncorrected Fisher's LSD comparisons test.

[7] = tested on: healthy male and female subjects; experiment: Single dose crossover study in healthy volunteers, adverse events; type: in vivo, human
Description: A total of 128 TEAEs (treatment-emergent adverse event) were reported by 15 of 16 (94%) subjects of which 79 TEAEs reported by 14 of 16 (88%) subjects were to be related to the study drug. Overall, a total of 14 of 128 TEAEs reported by 4 (25%) subjects were of moderate severity and 114 of 128 TEAEs reported by 15 (94%) subjects were of mild severity. […] The most frequently occurring adverse events (reported more than twice) were headache, dizziness, hypokinesia, feeling abnormal, fatigue, euphoric mood inappropriate affect, nausea and hyperhidrosis. Table 4 presents the frequency of the most frequently reported related TEAEs as a percentage of the subjects that experienced an adverse effect per treatment.

liver of Crl:CD(SD) rats = experiment: In vivo single cell gel electrophoresis (comet) assay, liver; details: for median % tail intensity (% TI) in liver vs vehicle control: 3 doses, p<0.001; for lower benchmark dose (BMDL50), single slide median Tail Intensity: PROAST v63.3
[8] = plasma analyte after single 20 mg oral solution of esketamine hydrochloride
[9] = Day 28, male rats, 6 mg/kg oral gavage once daily
[10] = Day 28, male rats, 10 mg/kg oral gavage once daily

SMILES: N[C@]1(c2ccccc2Cl)CCC[C@H](O)C1=O [(2S,6S)-OH-Norketamine, (2S,6S)-2-Amino-2-(2-chlorophenyl)-6-hydroxycyclohexanone]
- Cmax, Geometric mean (CV %) ([1]; plasma analyte after single 20 mg oral solution of esketamine hydrochloride, 15 subjects): 46.46 (28%) ng/ml

SMILES: N[C@]1(c2ccccc2Cl)CCCCC1=O [(S)-norketamine, (2S)-2-(2-Chlorophenyl)-2-(amino) cyclohexanone]
- AUC0-inf, Geometric mean (CV %) [1, 8]: 416.89 (19%) ng · h/ml
- AUC0-t, Geometric mean (CV %) [1, 8]: 404.96 (19%) ng · h/ml
- t1/2, Geometric mean (CV %) [1, 8]: 8.88 (26%) h
- t1/2, Geometric mean (CV %) ([1]; plasma analyte after single 100 mg oral tablet of esketamine hydrochloride): 9.27 (25%) h
- Toxicity (mitotic index), preliminary toxicity test [2]: Toxicity was not observed at any dose
- clastogenicity, induction of structural and numerical chromosomal aberrations [2]: non-clastogenic

SMILES: CO[C@@]12[C@H](COC(N)=O)C3=C(C(=O)C(C)=C(N)C3=O)N1C[C@@H]1N[C@@H]12 [MMC, mitomycin C]
- structural chromosomal aberrations, % of the cells [3]: 13.3%
- mean MI value ([3]; non-activated systems, positive control 0.6 and 0.3 μg/mL for 4- and 20-hour exposures): 9%

SMILES: CN[C@]1(c2ccccc2Cl)CCCCC1=O [esketamine, (2S)-2-(2-Chlorophenyl)-2-(methylamino) cyclohexanone]
- Cochran-Armitage test for dose response, structural aberrations [3]: positive for a dose response
- Toxicity (≥45% reduction in MI relative to the vehicle control), preliminary toxicity test [3]: Toxicity was not observed at any dose
- cytotoxicity (≥45% reduction in mitotic index relative to the vehicle control) ([3]; non-activated 4- and 20-hour treatment conditions): not observed at any esketamine dose
- Dose normalized AUC0-inf ([4]; female rats, 2 mg/kg oral gavage): 29.0 (ng * h/ml)/(mg/kg)
- Dose normalized AUC0-inf ([4]; female rats, 10 mg/kg oral gavage): 44.0 (ng * h/ml)/(mg/kg)
- Dose normalized AUC0-inf ([4]; female rats, 20 mg/kg oral gavage): 49.8 (ng * h/ml)/(mg/kg)
- Dose normalized AUC0-inf ([4]; male rats, 6 mg/kg oral gavage): 17.2 (ng * h/ml)/(mg/kg)
- Dose normalized AUC0-inf ([4]; male rats, 10 mg/kg oral gavage): 18.1 (ng * h/ml)/(mg/kg)
- Dose normalized AUC0-inf ([4]; male rats, 30 mg/kg oral gavage): 19.5 (ng * h/ml)/(mg/kg)
- Dose normalized AUC0-t ([4]; Day 28, female rats, 2 mg/kg oral gavage once daily): 31.0 (ng * h/ml)/(mg/kg)
- Dose normalized AUC0-t ([4]; Day 28, female rats, 10 mg/kg oral gavage once daily): 51.3 (ng * h/ml)/(mg/kg)
- Dose normalized AUC0-t ([4]; Day 28, female rats, 20 mg/kg oral gavage once daily): 53.2 (ng * h/ml)/(mg/kg)
- Cmax [4, 9]: 113.1 ng/mL
- Dose normalized AUC0-t [4, 9]: 10.2 (ng * h/ml)/(mg/kg)
- AUC0-t [4, 10]: 179 ng·h/mL
- Dose normalized AUC0-t [4, 10]: 17.9 (ng * h/ml)/(mg/kg)
- Dose normalized AUC0-t ([4]; Day 28, male rats, 30 mg/kg oral gavage once daily): 19.2 (ng * h/ml)/(mg/kg)
- dose-normalized exposure, sex difference ([4]; after normalization for dose level differences): males had lower exposures than females
- exposure Day 28 compared to Day 1 ([4]; exception: Cmax in females higher on Day 28): Exposures were similar on Day 28 compared to Day 1
- increase of exposure with dose ([4]; females, 2 to 20 mg/kg/day): slightly greater than dose-proportional
- increase of exposure with dose ([4]; males, 6 to 30 mg/kg/day): generally dose-proportional
- effects on clinical signs, body weights, food consumption, ophthalmology, motor activity, functional observational battery, clinical pathology or anatomic pathology (Sprague Dawley rats [5]): no esketamine-related effects
- mortality (Sprague Dawley rats [5]): no mortality
- genotoxic changes as shown in Examples 1 and 2 (Sprague Dawley rats [6]): not identified
- effect on immobility time (male Sprague Dawley rats): 42 % of control
- t1/2, Geometric mean (CV %) [1, 8]: 2.91 (37%) h
- related TEAE Dizziness, percentage of subjects ([7]; 0.3 mg/kg iv): 6%
- related TEAE Euphoric mood, percentage of subjects ([7]; 0.3 mg/kg iv): 19%
- related TEAE Fatigue, percentage of subjects ([7]; 0.3 mg/kg iv): 6%
- related TEAE Feeling abnormal, percentage of subjects ([7]; 0.3 mg/kg iv): 13%
- related TEAE Headache, percentage of subjects ([7]; 0.3 mg/kg iv): 19%
- related TEAE Hypokinesia, percentage of subjects ([7]; 0.3 mg/kg iv): 6%
- related TEAE Inappropriate affect, percentage of subjects ([7]; 0.3 mg/kg iv): 6%
- related TEAE Nausea, percentage of subjects ([7]; 0.3 mg/kg iv): 6%
- related TEAE Feeling abnormal, percentage of subjects ([7]; 20 mg oral solution): 19%
- related TEAE Headache, percentage of subjects ([7]; 20 mg oral solution): 19%
- related TEAE Inappropriate affect, percentage of subjects ([7]; 20 mg oral solution): 6%
- related TEAE Dizziness, percentage of subjects ([7]; 20 mg oral tablet): 13%
- related TEAE Fatigue, percentage of subjects ([7]; 20 mg oral tablet): 7%
- related TEAE Feeling abnormal, percentage of subjects ([7]; 20 mg oral tablet): 7%
- related TEAE Hyperhidrosis, percentage of subjects ([7]; 20 mg oral tablet): 7%
- related TEAE Dizziness, percentage of subjects ([7]; 100 mg oral tablet): 13%
- related TEAE Euphoric mood, percentage of subjects ([7]; 100 mg oral tablet): 13%
- related TEAE Feeling abnormal, percentage of subjects ([7]; 100 mg oral tablet): 20%
- related TEAE Headache, percentage of subjects ([7]; 100 mg oral tablet): 13%
- related TEAE Hyperhidrosis, percentage of subjects ([7]; 100 mg oral tablet): 7%
- related TEAE Hypokinesia, percentage of subjects ([7]; 100 mg oral tablet): 13%
- related TEAE Inappropriate affect, percentage of subjects ([7]; 100 mg oral tablet): 7%
- related TEAE Nausea, percentage of subjects ([7]; 100 mg oral tablet): 20%
- number of TEAEs related to the study drug ([7]; all treatments): 79
- total number of TEAEs ([7]; all treatments, 16 subjects): 128
- number of TEAEs of mild severity ([7]; of 128 TEAEs): 114
- number of TEAEs of moderate severity ([7]; of 128 TEAEs): 14
- macroscopic examination (liver of Crl:CD(SD) rats; after 3 doses of treatment): no test item related lesions
- group mean and median % TI values vs vehicle historical control range (liver of Crl:CD(SD) rats; female rats, 25 and 50 mg/kg/day): outside of the current vehicle historical control range
- median % tail intensity (% TI) in liver vs vehicle control (liver of Crl:CD(SD) rats; female rats, 25 and 50 mg/kg/day oral gavage): Statistically significant increases
- lower benchmark dose (BMDL50), single slide median Tail Intensity (liver of Crl:CD(SD) rats; female rats): 9.83 mg/kg/day
- DNA strand breaks in the liver (liver of Crl:CD(SD) rats; male and female rats, oral gavage): evidence of causing an increase
- Hedgehog cells in the liver (liver of Crl:CD(SD) rats; male or female rats, any dose level): No Hedgehog cells were observed
- group mean and median % TI values vs vehicle historical control range (liver of Crl:CD(SD) rats; male rats, 75 mg/kg/day): outside of the current vehicle historical control range
- median % tail intensity (% TI) in liver vs vehicle control (liver of Crl:CD(SD) rats; male rats, 75 mg/kg/day oral gavage): Statistically significant increases
- lower benchmark dose (BMDL50), single slide median Tail Intensity (liver of Crl:CD(SD) rats; male rats): 27.31 mg/kg/day
